Molecular target: T1, human CXCR4 receptor (Homo sapiens, UniProt P61073)
T1 construct: expressed in transfected cells
Assay: Measurement of intracellular Ca+2 responses (FLIPR), antagonism of the SDF-1α response
Assay type: cell-based
Settings: for IC50: HEK-Gqi5 cells stably expressing human CXCR4, Fluo-4 FLIPR, antagonism of SDF-1α 1.9 nM (EC65); for CXCR4 (% Inh): percent antagonism of SDF-1α 1.9 nM (EC65) response, HEK-Gqi5 human CXCR4 cells, value in brackets
Experimental: Measurement of Intracellular Ca^+2 Responses for CXCR4 Compounds
HEK-Gqi5 cells stably expressing the human CXCR4 receptor were utilized for these studies. The growth media for the CXCR4 receptor expressing cell line was DMEM high glucose medium supplemented with 10% fetal bovine serum (FBS), 1% antibiotic-antimycotic, 50 ug/ml hygromycin B, and 400 μg/ml geneticin. Ten thousand cells per well were plated into 384-well poly-D-lysine coated plates one day prior to use. On the day of the experiment, the cells were washed twice with Hank's Balanced Salt Solution supplemented with 20 mM hepes (HBSS/hepes buffer). The cells were then dye loaded with 2 uM Fluo-4 diluted in the HBSS/Hepes buffer and incubated at 37° C. for 40 minutes. Extracellular dye was removed by washing the cell plates four times prior to placing the plates in the FLIPR (Fluorometric Imaging Plate Reader, Molecular Devices). Ligands were diluted in HBSS/Hepes buffer and prepared in 384-well microplates. The positive control, stromal-cell derived factor-1 (SDF-1α), was diluted in HBSS/Hepes buffer with 4 mg/ml fatty acid free bovine serum albumin. Two drug additions were made by the FLIPR. The first drug addition was the test drug in concentrations ranging from 2.44 nM to 40,000 nM. After this addition, fluorescent measurements were taken. Any calcium release in response to this drug addition represents agonist activity of the compounds. The second drug addition was SDF-1α at a final concentration of 1.9 nM (EC65). Fluorescence measurements were also taken after this second drug addition and were used to determine the ability of the test compounds to antagonize the SDF-1α response. Results were expressed as EC50 and efficacy values, as well as IC50 and percent antagonism values. As controls, SDF-1α (CXCR4 agonist) and AMD3100 (CXCR4 antagonist) dose-response curves were also determined in each study.

T1 sequence (P61073 whole entry): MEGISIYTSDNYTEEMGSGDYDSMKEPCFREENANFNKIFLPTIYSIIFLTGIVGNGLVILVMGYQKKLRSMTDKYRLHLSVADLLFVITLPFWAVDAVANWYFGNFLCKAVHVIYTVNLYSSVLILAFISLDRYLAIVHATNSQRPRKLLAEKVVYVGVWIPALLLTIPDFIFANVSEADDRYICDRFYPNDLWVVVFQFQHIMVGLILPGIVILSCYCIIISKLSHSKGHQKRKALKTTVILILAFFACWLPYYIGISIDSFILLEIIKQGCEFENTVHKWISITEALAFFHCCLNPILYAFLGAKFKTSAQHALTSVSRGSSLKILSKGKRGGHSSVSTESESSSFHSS

Compound | IC50 (values in nM) | CXCR4 (% Inh) | IC50 (values given in μM) | IC50 (unit of the source corrected, heading: CXCR4 IC50, values given in μM)
COc1cccc(N(C)C)c1CN1CCC(Nc2nc(NC3CCN(C)CC3)nc3ccccc23)CC1 [Compound 94, N4-(1-(2-(Dimethylamino)-6-methoxybenzyl)piperidin-4-yl)-N2-(1-methylpiperidin-4-yl)quinazoline-2,4-diamine] | 790 nM | 96% | – | –
COc1cccc(N(C)C)c1CN1CCC(Nc2nc(NCCN3CC(C)OC(C)C3)nc3ccccc23)CC1 (centres unmarked) [Compound 95, N4-(1-(2-(Dimethylamino)-6-methoxybenzyl)piperidin-4-yl)-N2-(2-(2,6-dimethylmorpholino)ethyl)quinazoline-2,4-diamine] | 605 nM | 98% | – | –
COc1cccc(N(C)C)c1CN1CCC(Nc2nc(NCC(C)(C)CN(C)C)nc3ccccc23)CC1 [Compound 96, N2-(3-(Dimethylamino)-2,2-dimethylpropyl)-N4-(1-(2-(dimethylamino)-6-methoxybenzyl)piperidin-4-yl)quinazoline-2,4-diamine] | 240 nM | 100% | – | –
COc1cccc(N(C)C)c1CN1CCC(Nc2nc(NCCC3CCCN3C)nc3ccccc23)CC1 (centres unmarked) [Compound 97, N4-(1-(2-(Dimethylamino)-6-methoxybenzyl)piperidin-4-yl)-N2-(2-(1-methylpyrrolidin-2-yl)ethyl)quinazoline-2,4-diamine] | 140 nM | 100% | – | –
COc1cccc(N(C)C)c1CN1CCC(Nc2nc(NCC3CCCO3)nc3ccccc23)CC1 (centres unmarked) [Compound 98, N4-(1-(2-(Dimethylamino)-6-methoxybenzyl)piperidin-4-yl)-N2-((tetrahydrofuran-2-yl)methyl)quinazoline-2,4-diamine] | 624 nM | 98% | – | –
COc1cccc(N(C)C)c1CN1CCC(Nc2nc(NCCCO)nc3ccccc23)CC1 [Compound 99, 3-(4-(1-(2-(Dimethylamino)-6-methoxybenzyl)piperidin-4-ylamino)quinazolin-2-ylamino)propan-1-ol] | 611 nM | 100% | – | –
COc1cccc(N(C)C)c1CN1CCC(Nc2nc(NCCC#N)nc3ccccc23)CC1 [Compound 100, 3-(4-(1-(2-(Dimethylamino)-6-methoxybenzyl)piperidin-4-ylamino)quinazolin-2-ylamino)propanenitrile] | – | 100% | 1900 nM | –
CNCCCCNc1nc(NC2CCN(Cc3c(OC)cccc3N(C)C)CC2)c2ccccc2n1 [Compound 102, N4-(1-(2-(Dimethylamino)-6-methoxybenzyl)piperidin-4-yl)-N2-(4-(methylamino)butyl)quinazoline-2,4-diamine] | 215 nM | 97% | – | –
COc1cccc(N(C)C)c1CN1CCC(Nc2nc(N3CC(CN(C)C(=O)OC(C)(C)C)C3)nc3ccccc23)CC1 [Compound 103, tert-Butyl (1-(4-(1-(2-(Dimethylamino)-6-methoxybenzyl)piperidin-4-ylamino)quinazolin-2-yl)azetidin-3-yl)methyl(methyl)carbamate] | – | 82% | 4100 nM | –
CNCC1CN(c2nc(NC3CCN(Cc4c(OC)cccc4N(C)C)CC3)c3ccccc3n2)C1 [Compound 104, N-(1-(2-(Dimethylamino)-6-methoxybenzyl)piperidin-4-yl)-2-(3-((methylamino)methyl)azetidin-1-yl)quinazolin-4-amine] | – | 97% | 1000 nM | –
CCNCCNc1nc(NC2CCN(Cc3c(OC)cccc3N(C)C)CC2)c2ccccc2n1 [Compound 105, N4-(1-(2-(Dimethylamino)-6-methoxybenzyl)piperidin-4-yl)-N2-(2-(ethylamino)ethyl)quinazoline-2,4-diamine] | 771 nM | 98% | – | –
COc1cccc(N(C)C)c1CN1CCC(Nc2nc(NCC3CCN(C(=O)OC(C)(C)C)C3)nc3ccccc23)CC1 (centres unmarked) [Compound 106, tert-Butyl 3-((4-(1-(2-(Dimethylamino)-6-methoxybenzyl)piperidin-4-ylamino)quinazolin-2-ylamino)methyl)pyrrolidine-1-carboxylate] | – | 73% | 2300 nM | –
CCN1CCC(CNc2nc(NC3CCN(Cc4c(OC)cccc4N(C)C)CC3)c3ccccc3n2)C1 (centres unmarked) [Compound 107, N4-(1-(2-(Dimethylamino)-6-methoxybenzyl)piperidin-4-yl)-N2-((1-ethylpyrrolidin-3-yl)methyl)quinazoline-2,4-diamine] | 653 nM | 96% | – | –
COc1cccc(N(C)C)c1CN1CCC(Nc2nc(NCC3CN(C(=O)OC(C)(C)C)C3)nc3ccccc23)CC1 [Compound 108, tert-Butyl 3-((4-(1-(2-(Dimethylamino)-6-methoxybenzyl)piperidin-4-ylamino)quinazolin-2-ylamino)methyl)azetidine-1-carboxylate] | – | 89% | 2000 nM | –
COc1cccc(N(C)C)c1CN1CCC(Nc2nc(NCC3CNC3)nc3ccccc23)CC1 [Compound 109, N2-(Azetidin-3-ylmethyl)-N4-(1-(2-(dimethylamino)-6-methoxybenzyl)piperidin-4-yl)quinazoline-2,4-diamine] | 155 nM | 98% | – | –
COc1cccc(N(C)C)c1CN1CCC(Nc2nc(NC[C@H]3CCN(C(=O)OC(C)(C)C)C3)nc3ccccc23)CC1 [Compound 110, (R)-tert-Butyl 3-((4-(1-(2-(Dimethylamino)-6-methoxybenzyl)piperidin-4-ylamino)quinazolin-2-ylamino)methyl)pyrrolidine-1-carboxylate] | – | 81% | 2200 nM | –
COc1cccc(N(C)C)c1CN1CCC(Nc2nc(NC[C@H]3CCNC3)nc3ccccc23)CC1 [Compound 111, (S)—N-4-(1-(2-(Dimethylamino)-6-methoxybenzyl)piperidin-4-yl)-N2-(pyrrolidin-3-ylmethyl)quinazoline-2,4-diamine] | – | 98% | – | 224 nM
COc1cccc(N(C)C)c1CN1CCC(Nc2nc(NC[C@@H]3CCN(C(=O)OC(C)(C)C)C3)nc3ccccc23)CC1 [Compound 112, (S)-tert-Butyl 3-((4-(1-(2-(Dimethylamino)-6-methoxybenzyl)piperidin-4-ylamino)quinazolin-2-ylamino)methyl)pyrrolidine-1-carboxylate] | – | 77% | 2100 nM | –
COc1cccc(N(C)C)c1CN1CCC(Nc2nc(NC[C@@H]3CCNC3)nc3ccccc23)CC1 [Compound 113, (R)—N-4-(1-(2-(Dimethylamino)-6-methoxybenzyl)piperidin-4-yl)-N2-(pyrrolidin-3-ylmethyl)quinazoline-2,4-diamine] | 129 nM | 99% | – | –
COc1cccc(N(C)C)c1CN1CCC(Nc2nc(NCC[C@@H]3CCCN3C(=O)OC(C)(C)C)nc3ccccc23)CC1 [Compound 114, (S)-tert-Butyl 2-(2-(4-(1-(2-(Dimethylamino)-6-methoxybenzyl)piperidin-4-ylamino)quinazolin-2-ylamino)ethyl)pyrrolidine-1-carboxylate] | – | 75% | 2100 nM | –
COc1cccc(N(C)C)c1CN1CCC(Nc2nc(NCC[C@@H]3CCCN3)nc3ccccc23)CC1 [Compound 115, (S)—N-4-(1-(2-(Dimethylamino)-6-methoxybenzyl)piperidin-4-yl)-N2-(2-(pyrrolidin-2-yl)ethyl)quinazoline-2,4-diamine] | 234 nM | 95% | – | –
COc1cccc(N(C)C)c1CN1CCC(Nc2nc(NCC[C@H]3CCCN3C(=O)OC(C)(C)C)nc3ccccc23)CC1 [Compound 116, (R)-tert-Butyl 2-(2-(4-(1-(2-(Dimethylamino)-6-methoxybenzyl)piperidin-4-ylamino)quinazolin-2-ylamino)ethyl)pyrrolidine-1-carboxylate] | – | 83% | 2200 nM | –
COc1cccc(N(C)C)c1CN1CCC(Nc2nc(NCC[C@H]3CCCN3)nc3ccccc23)CC1 [Compound 117, (R)—N-4-(1-(2-(Dimethylamino)-6-methoxybenzyl)piperidin-4-yl)-N2-(2-(pyrrolidin-2-yl)ethyl)quinazoline-2,4-diamine] | 319 nM | 95% | – | –
COc1cccc(N(C)C)c1CN1CCC(Nc2nc(NCCNC(C)=O)nc3ccccc23)CC1 [Compound 118, N-(2-(4-(1-(2-(Dimethylamino)-6-methoxybenzyl)piperidin-4-ylamino)quinazolin-2-ylamino)ethyl)acetamide] | 762 nM | 97% | – | –
COc1cccc(N(C)C)c1CN1CCC(Nc2nc(NCCc3c[nH]cn3)nc3ccccc23)CC1 [Compound 119, N2-(2-(1H-Imidazol-4-yl)ethyl)-N4-(1-(2-(dimethylamino)-6-methoxybenzyl)piperidin-4-yl)quinazoline-2,4-diamine] | 387 nM | 96% | – | –
